Laboratory results taken from paper PMC8448819, “The Arabidopsis MIK2 receptor elicits immunity by sensing a conserved signature from phytocytokines and microbes” (Nature Communications, 2021).

Columns and labels:
[1] = test system: MYB51 promoter, pMYB51::GUS seedling roots; assay: Histochemical GUS staining, pMYB51::GUS; assay type: in vivo, Arabidopsis thaliana; settings: pMYB51::GUS seedlings, 1 µM, 3 h
From the text: Stained samples were fixed with a 3:1 ethanol:acetic acid solution overnight and cleared by lactic acid and photographed with the Olympus SZX10 stereoscopic microscope equipped with DP27 camera.

[2] = test system: bak1-4 and bak1-5/serk4 mutant seedlings; assay: Root growth assay, coreceptor mutants; assay type: in vivo, Arabidopsis thaliana
From the text: (§1) The Arabidopsis thaliana accession Columbia-0 (Col-0) was used as wild type (WT). T-DNA insertion mutants of mik2-1 (SALK_061769), mik2-2 (SALK_046987), mik2-like (SALK_112341), and rlk7-3 (SALK_120595) were obtained from the Nottingham Arabidopsis Stock Centre (NASC). The fls2 (SALK_141277), bak1-4, bik1-1/pbl1-1, bak1-5/serk4-1, rbohd mutants, and the transgenic line expressing p35S::GFP have been reported previously[19],[62],[63]. The hae/hsl2 mutant was kindly provided by Dr. Reidunn B. Aalen (University of Oslo, Norway), the pepr1-2/pepr2-2 (pepr1,2) mutant by Dr. Zhi Qi (Inner Mongolia University, China), the scoop12 mutant by Dr. Sébastien Aubourg (INRA, France), a transgenic line expressing p35S::Aequorin by Dr. Marc Knight (Durham University, UK), transgenic line expressing pMYB51::GUS by Dr. Frederick M. Ausubel (Harvard Medical School, USA). […]
(§2) Cold stratified seeds were surface-sterilized with 70% (v/v) ethanol for 5 min and were sown on ½MS plates with or without peptides at indicated concentrations. Ten-day-old seedlings grown on plates vertically in a growth chamber were photographed, and the root lengths of seedlings were measured using Image J (http://rsb.info.nih.gov/ij/).

[3] = test system: bik1/pbl1 mutant seedlings; assay: Root growth assay, bik1/pbl1 mutant; assay type: in vivo, Arabidopsis thaliana; settings: bik1/pbl1, 1 µM
From the text: as §1, §2

Arabidopsis leaf disks = assay: Ethylene production; assay type: in vivo, Arabidopsis thaliana; settings: Fig. 2j, leaf disks of 4-week-old plants, peptides at 1 µM, 23 °C, 4 h, GC-FID
Protocol: Twelve leaves of 4-week-old plants grown on soil were excised into leaf disks of 0.25 cm^2, followed by overnight incubation in a 25 mL glass vial with 2 mL of ddH2O for recovery. Then, ddH2O was replaced by 1 mL of peptides at 1 µM, and the vials were capped immediately with a rubber stopper and incubated at 23 °C with gentle agitation for 4 h. One mL of the vial headspace was injected into a TRACE^TM 1310 Gas Chromatograph (Thermo Fisher Scientific) with FID supported by Chromeleon 7 for quantitation.

BIK1 = BIK1 phosphorylation assay; assay type: cell-based, Arabidopsis thaliana; settings: protoplasts expressing BIK1-HA, 1 μM, 15 min, mobility shift
Protocol: WT protoplasts were transfected with pHBT-35S::BIK1-HA for 12 h followed by treatment with 1 μM SCOOP peptides for 15 min.

mik2-1 seedling roots = assay: Microscopy of root meristems, mik2-1; assay type: in vivo, Arabidopsis thaliana; settings: mik2-1, 1 µM, 48 h
[4] = test system: MPK3, MPK4 and MPK6 phosphorylation, WT seedlings; assay: MAPK assay (α-pERK1/2 immunoblot), WT; assay type: in vivo, Arabidopsis thaliana; settings: Supplementary Fig. 3i
Protocol: Ten-day-old seedlings grown vertically on ½MS plates were transferred to ddH2O overnight for recovery. Then, ddH2O was replaced by 100 nM peptides for the indicated time.

Arabidopsis = settings: cited from earlier work
From the text: Some plant LRR-RKs are pattern recognition receptors (PRRs) that recognize pathogen- or microbe-associated molecular patterns (PAMPs or MAMPs) or damage-associated molecular patterns (DAMPs) and initiate pattern-triggered immunity (PTI)[10]-[13]. […] Despite the differ ... || Plant plasma membrane-resident RKs perceive diverse exogenous and endogenous signals via the extracellular domain and activate intracellular responses through the cytoplasmic kinase domain[1]-[3]. The chimeric receptors with the swapped extracellular and intracellular domains between different RKs have been used to study the specificity of signal perception and signaling activation[48]-[52]. The extracellular domains of RKs determine the ligand-binding specificity[50],[51],[53]. The intracellular kinase domains of different RKs also trigger specific responses. […] It remains unknown why plants have evolved so many SCOOPs and the functional specificity for different SCOOPs. […] SCOOP12, the most studied SCOOP, is highly expressed in roots (Fig. 2b), and was indicated to regulate ro ...

[5] = test system: RLK7^ECD-MIK2^TK/rlk7 and RLK7/rlk7 transgenic seedlings; assay: ROS assay (luminol), RLK7/rlk7 and RLK7^ECD-MIK2^TK/rlk7 seedlings; assay type: in vivo, Arabidopsis thaliana; settings: for ROS production, total: Fig. 1d
Protocol: ROS burst was determined by a luminol-based assay. […] Then, ddH2O was replaced by 200 µL of reaction solution containing 50 µM of luminol, and 10 µg/mL of horseradish peroxidase (Sigma-Aldrich) supplemented with or without 100 nM or 1 μM peptide. Luminescence was measured immediately after adding the solution with a luminometer (Glomax 20/20n, Promega) with a one-second interval for 15 min. The total values of ROS production were indicated as means of the relative light units (RLUs).

PNGDIFTGPSGSGHGGGR [SCOOP10B, synthesized SCOOP peptide corresponding to the SxS motif]
MYB51 promoter activity in roots [1]: induced the promoter activities of MYB51 | root growth inhibition in bak1-4 ([2]; bak1-4, 1 µM): partially compromised in bak1-4 | root growth inhibition in bak1-5/serk4 ([2]; bak1-5/serk4, 1 µM): compromised in bak1-4 and bak1-5/serk4 | root growth inhibition in bik1/pbl1 [3]: significantly compromised in the bik1/pbl1 mutant | ethylene production (Arabidopsis leaf disks; repeat 1): 2.0449 ppm | ethylene production (Arabidopsis leaf disks; repeat 2): 1.4942 ppm | ethylene production (Arabidopsis leaf disks; repeat 3): 1.8726 ppm | BIK1 phosphorylation (BIK1): led to the phosphorylation of BIK1 | root meristem distortion in mik2-1 (mik2-1 seedling roots): not observed in mik2-1 | MAPK activation in shoots and roots [4]: triggered the MAPK activation in both shoots and roots

RLASGP(OH)SPRGRGH [PIP1, secreted peptide, ligand of RLK7]
BIK1 dependence of responses (Arabidopsis): BIK1-independent | ROS production, total ([5]; RLK7/rlk7 L4, 100 nM PIP1, one-week-old seedlings, repeat 1): 239291 RLU | ROS production, total ([5]; RLK7/rlk7 L4, 100 nM PIP1, one-week-old seedlings, repeat 2): 252204 RLU | ROS production, total ([5]; RLK7/rlk7 L4, 100 nM PIP1, one-week-old seedlings, repeat 3): 283681 RLU | ROS production, total ([5]; RLK7/rlk7 L4, 100 nM PIP1, one-week-old seedlings, repeat 4): 318922 RLU | ROS production, total ([5]; RLK7/rlk7 L5, 100 nM PIP1, one-week-old seedlings, repeat 1): 275783 RLU | ROS production, total ([5]; RLK7/rlk7 L5, 100 nM PIP1, one-week-old seedlings, repeat 2): 220663 RLU | ROS production, total ([5]; RLK7/rlk7 L5, 100 nM PIP1, one-week-old seedlings, repeat 3): 252086 RLU | ROS production, total ([5]; RLK7/rlk7 L5, 100 nM PIP1, one-week-old seedlings, repeat 4): 358908 RLU | ROS production, total ([5]; RLK7ECD-MIK2TK/rlk7 L9, 100 nM PIP1, one-week-old seedlings, repeat 1): 1753777 RLU | ROS production, total ([5]; RLK7ECD-MIK2TK/rlk7 L9, 100 nM PIP1, one-week-old seedlings, repeat 2): 1827311 RLU | ROS production, total ([5]; RLK7ECD-MIK2TK/rlk7 L9, 100 nM PIP1, one-week-old seedlings, repeat 3): 2926668 RLU | ROS production, total ([5]; RLK7ECD-MIK2TK/rlk7 L9, 100 nM PIP1, one-week-old seedlings, repeat 4): 3467034 RLU | ROS production, total ([5]; RLK7ECD-MIK2TK/rlk7 L9, 100 nM PIP1, one-week-old seedlings, repeat 5): 1491639 RLU | ROS production, total ([5]; RLK7ECD-MIK2TK/rlk7 L16, 100 nM PIP1, one-week-old seedlings, repeat 1): 3868648 RLU | ROS production, total ([5]; RLK7ECD-MIK2TK/rlk7 L16, 100 nM PIP1, one-week-old seedlings, repeat 2): 1259772 RLU | ROS production, total ([5]; RLK7ECD-MIK2TK/rlk7 L16, 100 nM PIP1, one-week-old seedlings, repeat 3): 2844613 RLU | ROS production, total ([5]; RLK7ECD-MIK2TK/rlk7 L16, 100 nM PIP1, one-week-old seedlings, repeat 4): 3037378 RLU | ROS production, total ([5]; RLK7ECD-MIK2TK/rlk7 L16, 100 nM PIP1, one-week-old seedlings, repeat 5): 940879 RLU | ROS production ([5]; RLK7/rlk7, 100 nM PIP1): weakly induced ROS production | ROS production ([5]; RLK7^ECD-MIK2^TK/rlk7, 100 nM PIP1): robust production of ROS
